Active and inactive are the calls of the source. The rule behind the calls is not given here.
How the values were obtained:
Assay type in all cases: functional
Rattus norvegicus [1] = species: Rattus norvegicus; assay: The Magnitude of the peak current produced by 1 uM GABA plus 1 uM compound was normalized with respect to the peak current produced by 1 uM GABA alone on the same cell.
Rattus norvegicus [2] = species: Rattus norvegicus; assay: The compound gated current reflects the peak current directly gated by 10 uM compound in the absence of GABA compared to the response obtained from the same cell in response to 1 uM GABA alone.
Rattus norvegicus [3] = species: Rattus norvegicus; assay: The compound gated current reflects the peak current directly gated by 10 uM compound in the absence of GABA compared to the response obtained from the same cell in response to 1 uM GABA alone; No response
Rattus norvegicus [4] = species: Rattus norvegicus; assay: The Magnitude of the peak current produced by 1 uM GABA plus 1 uM compound was normalized with respect to the peak current produced by 1 uM GABA alone on the same cell. Values are mean+/-SEM

Row | SMILES | Response (Rattus norvegicus [1]) [%] | Effect (Rattus norvegicus [2]) | Effect (Rattus norvegicus [3]) | Response (Rattus norvegicus [4]) [%]
1 | C[C@]12CCC3C[C@@H](CCO)CCC3C1CC[C@@H]2C#N (stereo partly specified) | 497 | 115 |  | 
2 | C[C@]12CC[C@@H]3C4CC[C@@H](O)C[C@H]4CC[C@H]3[C@@H]1CC[C@H]2C#N (stereo partly specified) | 443 | 49 |  | 
3 | C[C@]12CCC3C[C@H](CCO)CCC3C1CC[C@@H]2C#N (stereo partly specified) | 346 |  | inactive | 
4 | CC(=O)[C@@H]1CC[C@H]2[C@@H]3CC[C@@H]4C[C@H](O)CCC4[C@H]3CC[C@]12C (stereo partly specified) | 523 | 30 |  | 
5 | C[C@]12CCC3C[C@@H](CCO)CCC3C1CC[C@@H]2O (stereo partly specified) | 93 |  | inactive | 
6 | CC(=O)[C@@H]1CC[C@H]2[C@@H]3CC[C@H]4C[C@H](O)CCC4[C@H]3CC[C@]12C (stereo partly specified) | 521 | 144 |  | 
7 | CC(C)(C)O[C@H]1CCC2C3CC[C@H](CCO)CC3CC[C@@]21C (stereo partly specified) | 114 |  | inactive | 
8 | CC(=O)[C@H]1CCC2C3CC[C@H](CCO)CC3CC[C@@]21C (stereo partly specified) | 312 | 113 |  | 
9 | C[C@]12CCC3C[C@@H](CCO)CCC3C1CCC2=O (stereo partly specified) | 197 |  | inactive | 
10 | CC(=O)[C@H]1CCC2C3CC[C@@H](CCO)CC3CC[C@@]21C (stereo partly specified) |  |  | inactive | 489
11 | C[C@]12CCC3C[C@@H](CCO)CCC3C1CCC2C#N (stereo partly specified) | 104 |  | inactive | 
12 | CC(=O)C1CCC2C3CC[C@H](CCO)CC3CC[C@]12C (stereo partly specified) | 213 | 43 |  | 
13 | C[C@]12CC[C@@H]3C4CC[C@@H](O)C[C@@H]4CC[C@H]3[C@@H]1CC[C@H]2C#N (stereo partly specified) | 514 | 166 |  | 
